The values that follow come from patent US20190382850A1, “METHOD FOR IDENTIFYING MITOCHONDRIAL DNA IN EXTRACELLULAR VESICLES AND TREATMENT OF MTDNA-RELATED DISORDERS AND CANCER” (Memorial Sloan-Kettering Cancer Center, priority 2017, published 2019).

The test system of the assay is MCF7 xenografts. The assay can be described thus: Tumor growth (BLI) of MCF7 mammary fat pad xenografts treated with HT. The format is in vivo, mice. The note with it: weekly fulvestrant, FIG. 2a. An excerpt: (Panel a) Representative tumor growth kinetics (BLI) of GFP+/Luciferase+MCF7 xenografts (n=10) treated with weekly fulvestrant once mammary fat pad tumors were established (after 3 months) which led to a period (4 months) of disease stability on HT (HTS) followed by exponential growth on HT (HTR). Representative H&E images of tumors and primary cultures from unsorted as well as FACS purified cancer cells (GFP+/Epcam+) and murine CAFs (GFP−/Epcam). Scale bar 20 μm. (Panel b) OXPHOS potential in tumor-derived cancer cells (panel a) was measured±HT (fulvestrant, 10 μM) by Seahorse. (Panel c) mtDNA/nDNA (human and murine) level as Fold change (log10scale) in cancer cells and mCAFs isolated from HTS and HTR disease (panel a). (Panel d) Percentage of metastatic lesions isolated by FACS from tumor-bearing mice (n=8/group) expressing murine mtDNA as determined by ND1 qPCR (2 ng of total DNA). Oxygen consumption rates (OCR) in murine-mtDNApos and ctrl HTR cells determined by Seahorse. (Panel e) Murine mitochondrial RNA expression (12 genes: ND1, ND2, COX2, ATP8, ATP6, COX3, ND3, ND4L, ND4, ND5, ND6, CytB) as fold change (logioscale) determined by qRT-PCR in HTR and HTS cells (panel a). […]
All cancer cell lines were engineered to express a GFP positive luciferase expression vector for in vitro and in vivo imaging studies. […] EV-number was determined by Nanosight. […]

Take `C[C@]12CC[C@@H]3c4ccc(O)cc4C[C@@H](CCCCCCCCC[S+]([O-])CCCC(F)(F)C(F)(F)F)[C@H]3[C@@H]1CC[C@@H]2O` (stereo partly shown) [fulvestrant]: the “growth pattern of tumors in tumor-bearing mice treated with HT” value is “no growth for 4 months (HTS) followed by exponential growth (HTR)”.
